Reference: ChEMBL document CHEMBL3046624, “Synthesis, single crystal X-ray studies and antimicrobial activities of novel Indole barbiturates” (Med Chem Res, 2012)
The source made the active and inactive calls. The rule behind the calls is not given here.

Key:
Format in all cases: functional, organism-based
Staphylococcus aureus [1] = test: Growth inhibition of Staphylococcus aureus at 300 ug/ml by cup-plate method
Staphylococcus aureus [2] = test: Growth inhibition of Staphylococcus aureus at 100 ug/ml by cup-plate method
Candida albicans [3] = test: Growth inhibition of Candida albicans at 100 ug/ml by cup-plate method
Proteus vulgaris [4] = test: Growth inhibition of Proteus vulgaris at 300 ug/ml by cup-plate method
Proteus vulgaris [5] = test: Growth inhibition of Proteus vulgaris at 100 ug/ml by cup-plate method
Saccharomyces cerevisiae [6] = test: Growth inhibition of Saccharomyces cerevisiae at 300 ug/ml by cup-plate method
Pseudomonas aeruginosa [7] = test: Growth inhibition of Pseudomonas aeruginosa at 100 ug/ml by cup-plate method
Pseudomonas aeruginosa [8] = test: Growth inhibition of Pseudomonas aeruginosa at 300 ug/ml by cup-plate method
Bacillus subtilis [9] = test: Growth inhibition of Bacillus subtilis at 200 ug/ml by cup plate method
Candida albicans [10] = test: Growth inhibition of Candida albicans at 200 ug/ml by cup-plate method
Candida albicans [11] = test: Growth inhibition of Candida albicans at 300 ug/ml by cup-plate method
Bacillus subtilis [12] = test: Growth inhibition of Bacillus subtilis at 100 ug/ml by cup plate method
Pseudomonas aeruginosa [13] = test: Growth inhibition of Pseudomonas aeruginosa at 200 ug/ml by cup-plate method
Escherichia coli [14] = test: Growth inhibition of Escherichia coli at 100 ug/ml by cup-plate method
Bacillus subtilis [15] = test: Growth inhibition of Bacillus subtilis at 300 ug/ml by cup plate method
Escherichia coli [16] = test: Growth inhibition of Escherichia coli at 200 ug/ml by cup-plate method
Escherichia coli [17] = test: Growth inhibition of Escherichia coli at 300 ug/ml by cup-plate method
Staphylococcus aureus [18] = test: Growth inhibition of Staphylococcus aureus at 200 ug/ml by cup-plate method
Saccharomyces cerevisiae [19] = test: Growth inhibition of Saccharomyces cerevisiae at 200 ug/ml by cup-plate method
Proteus vulgaris [20] = test: Growth inhibition of Proteus vulgaris at 200 ug/ml by cup-plate method
Saccharomyces cerevisiae [21] = test: Growth inhibition of Saccharomyces cerevisiae at 100 ug/ml by cup-plate method

Structure (SMILES)	growth inhibition (GI) (Staphylococcus aureus [1])	growth inhibition (GI) (Staphylococcus aureus [2])	growth inhibition (GI) (Candida albicans [3])	growth inhibition (GI) (Proteus vulgaris [4])	growth inhibition (GI) (Proteus vulgaris [5])	growth inhibition (GI) (Saccharomyces cerevisiae [6])	growth inhibition (GI) (Pseudomonas aeruginosa [7])	growth inhibition (GI) (Pseudomonas aeruginosa [8])	growth inhibition (GI) (Bacillus subtilis [9])	growth inhibition (GI) (Candida albicans [10])	growth inhibition (GI) (Candida albicans [11])	growth inhibition (GI) (Bacillus subtilis [12])	growth inhibition (GI) (Pseudomonas aeruginosa [13])	growth inhibition (GI) (Escherichia coli [14])	growth inhibition (GI) (Bacillus subtilis [15])	growth inhibition (GI) (Escherichia coli [16])	growth inhibition (GI) (Escherichia coli [17])	growth inhibition (GI) (Staphylococcus aureus [18])	growth inhibition (GI) (Saccharomyces cerevisiae [19])	growth inhibition (GI) (Proteus vulgaris [20])	also measured
CCn1c(-c2ccccc2)c(C=C2C(=O)NC(=O)NC2=O)c2ccccc21	inactive	inactive	Active	inactive	inactive	Active	Active	Active	inactive	Active	Active	inactive	Active	inactive	Active	inactive	inactive	inactive	Active	inactive	growth inhibition (GI) (Saccharomyces cerevisiae [21]): Active
COc1ccc(C(=O)Cn2c(-c3ccccc3)c(C=C3C(=O)NC(=O)NC3=O)c3ccccc32)cc1	inactive	inactive	Active	Active	Active	Active	Active	Active	inactive	Active	Active	inactive	Active	inactive	Active	inactive	inactive	inactive	inactive	Active	growth inhibition (GI) (Saccharomyces cerevisiae [21]): inactive
C=CCn1c(-c2ccccc2)c(C=C2C(=O)NC(=O)NC2=O)c2ccccc21	Active	Active	Active	Active	Active	Active	Active	Active	Active	Active	Active	Active	Active	Active	Active	Active	Active	Active	Active	Active	growth inhibition (GI) (Saccharomyces cerevisiae [21]): Active
O=C1NC(=O)C(=Cc2c(-c3ccccc3)n(CC(=O)c3ccc(-c4ccccc4)cc3)c3ccccc23)C(=O)N1	Active	Active	inactive	Active	inactive	Active	inactive	Active	Active	inactive	inactive	Active	inactive	Active	Active	Active	Active	Active	Active	Active	growth inhibition (GI) (Saccharomyces cerevisiae [21]): Active
CC(=O)N1CCN(c2ccc(OCC3COC(Cn4ccnc4)(c4ccc(Cl)cc4Cl)O3)cc2)CC1 (configuration not stated)	–	–	Active	–	–	Active	–	–	–	Active	Active	–	–	–	–	–	–	–	Active	–	growth inhibition (GI) (Saccharomyces cerevisiae [21]): Active
O=C1NC(=O)C(=Cc2c(-c3ccccc3)n(CC(=O)c3ccc(Br)cc3)c3ccccc23)C(=O)N1	Active	Active	Active	Active	Active	Active	Active	Active	Active	Active	Active	Active	Active	Active	Active	Active	Active	Active	Active	Active	growth inhibition (GI) (Saccharomyces cerevisiae [21]): Active
CC1(C)S[C@@H]2[C@H](NC(=O)[C@H](N)c3ccccc3)C(=O)N2[C@H]1C(=O)O	Active	Active	inactive	Active	Active	–	Active	Active	Active	inactive	inactive	Active	Active	Active	Active	Active	Active	Active	–	Active	–
O=C1NC(=O)C(=Cc2c(-c3ccccc3)n(CC(=O)c3ccc(Cl)cc3)c3ccccc23)C(=O)N1	Active	Active	Active	Active	Active	Active	Active	Active	Active	Active	Active	Active	Active	Active	Active	Active	Active	Active	Active	Active	growth inhibition (GI) (Saccharomyces cerevisiae [21]): Active
CCCCn1c(-c2ccccc2)c(C=C2C(=O)NC(=O)NC2=O)c2ccccc21	Active	Active	Active	Active	Active	inactive	inactive	inactive	Active	Active	Active	Active	inactive	Active	Active	Active	Active	Active	inactive	Active	growth inhibition (GI) (Saccharomyces cerevisiae [21]): inactive
O=C1NC(=O)C(=Cc2c(-c3ccccc3)n(CC(=O)c3ccccc3)c3ccccc23)C(=O)N1	inactive	inactive	inactive	Active	Active	Active	Active	Active	inactive	inactive	inactive	inactive	Active	inactive	inactive	inactive	inactive	inactive	Active	inactive	growth inhibition (GI) (Saccharomyces cerevisiae [21]): Active
